From patent US4971965A, “Antibiotics TAN-1057” (Takeda Chemical Industries, Ltd., priority 1988, dated 1990)
≈ marks a conversion by molar mass, not a printed value.

Columns and labels:
[1] = tested on: Eubacterium sp. biurens 515; test: MIC against anaerobic bacteria (Table 3); type: cell-based; conditions: 10^6 CFU/ml, GAM medium, Gas Pack, 37° C., 18 hours
Method: (§1) Inoculum size: 10^6 CFU/ml
(§2) ^Note 1 GAM medium(Nissui),
(§3) Gas Pack (BBL), 37° C., 18 hours

[2] = tested on: Fusobacterium necroform VPI 2891; test: MIC against anaerobic bacteria (Table 3); type: cell-based; conditions: VPI2891, 10^6 CFU/ml, GAM medium, Gas Pack, 37° C., 18 hours
Method: as §1, §2, §3

[3] = tested on: Lactobacillus acidophilus ATCC 4356; test: MIC against anaerobic bacteria (Table 3); type: cell-based; conditions: ATCC4356, 10^6 CFU/ml, GAM medium, Gas Pack, 37° C., 18 hours
Method: as §1, §2, §3

[4] = tested on: Mycoplasma garisepticum S6; test: MIC against Mycoplasma (Table 3); type: cell-based; conditions: S6, 120 h, 10^6 CFU/ml, Hayflick medium, 37° C., 5 days
From the text: | Inoculum size: 10^6 CFU/ml

[5] = tested on: Acinetobacter calcoaceticus IFO 12552; type: cell-based; conditions: IFO12552, agar dilution, DY medium, pH unadjusted, approx. 10^6 CFU/ml, read-out: Minimum Inhibitory Conc. (MIC)
Method: (§4) (Note 1) Measurement was conducted by employing a medium consisting of DY
(§5) medium [Bacto Antibiotic Medium 3 (Difco Laboratories, USA)(17.5 g), Bact
(§6) yeast extract(Difco Laboratories, USA)(5.0 g) and distilled water(pH
(§7) unadjusted)(1000 ml)], using approximately 10^6 colony forming unit/m
(§8) of inoculum, by means of the agar dilution method.

Aeromonas caviae NCW = type: cell-based; conditions: read-out: Minimum Inhibitory Conc. (MIC)
Method: as §4, §5, §6, §7, §8

Bacillus cereus FDA 5 = type: cell-based; conditions: FDA5, agar dilution, DY medium, pH unadjusted, approx. 10^6 CFU/ml, read-out: Minimum Inhibitory Conc. (MIC)
Method: as §4, §5, §6, §7, §8

[6] = tested on: Bacillus megaterium IFO 12108; type: cell-based; conditions: Priestia megaterium, IFO12108, read-out: Minimum Inhibitory Conc. (MIC)
Method: as §4, §5, §6, §7, §8

[7] = tested on: Bacillus subtilis NIHJ PCI 219; type: cell-based; conditions: read-out: Minimum Inhibitory Conc. (MIC)
Method: as §4, §5, §6, §7, §8

Escherichia coli LD-2 = type: cell-based; conditions: LD2, read-out: Minimum Inhibitory Conc. (MIC)
Method: as §4, §5, §6, §7, §8

[8] = tested on: Escherichia coli NIHJ JC 2; type: cell-based; conditions: NIHJJC2, agar dilution, DY medium, pH unadjusted, approx. 10^6 CFU/ml, read-out: Minimum Inhibitory Conc. (MIC)
Method: as §4, §5, §6, §7, §8

[9] = tested on: Klebsiella pnemoniae IFO 3317; type: cell-based; conditions: IFO3317, agar dilution, DY medium, pH unadjusted, approx. 10^6 CFU/ml, read-out: Minimum Inhibitory Conc. (MIC)
Method: as §4, §5, §6, §7, §8

[10] = tested on: Micrococcus luteus IFO 12708; type: cell-based; conditions: IFO12708, read-out: Minimum Inhibitory Conc. (MIC)
Method: as §4, §5, §6, §7, §8

[11] = tested on: Proteus vulgaris IFO 3988; type: cell-based; conditions: IFO3988, agar dilution, DY medium, pH unadjusted, approx. 10^6 CFU/ml, read-out: Minimum Inhibitory Conc. (MIC)
Method: as §4, §5, §6, §7, §8

[12] = tested on: Pseudomonas aeruginosa IFO 3080; type: cell-based; conditions: IFO3080, agar dilution, DY medium, pH unadjusted, approx. 10^6 CFU/ml, read-out: Minimum Inhibitory Conc. (MIC)
Method: as §4, §5, §6, §7, §8

[13] = tested on: Salmonella typhimurium IFO 12529; type: cell-based; conditions: Salmonella enterica; agar dilution; DY medium, pH unadjusted; approx. 10^6 CFU/ml; read-out: Minimum Inhibitory Conc. (MIC)
Method: as §4, §5, §6, §7, §8

[14] = tested on: Staphylococcus aureus FDA 209P; type: cell-based; conditions: FDA209P, read-out: Minimum Inhibitory Conc. (MIC)
Method: as §4, §5, §6, §7, §8

[15] = tested on: Staphylococcus epidermidis IFO 3762; type: cell-based; conditions: IFO3762, agar dilution, DY medium, pH unadjusted, approx. 10^6 CFU/ml, read-out: Minimum Inhibitory Conc. (MIC)
Method: as §4, §5, §6, §7, §8

[16] = tested on: Streptococcus faecalis IFO 3989; type: cell-based; conditions: Enterococcus faecalis, IFO3989, read-out: Minimum Inhibitory Conc. (MIC)
Method: as §4, §5, §6, §7, §8

[17] = Acute toxicity in mice (Table 7); conditions: mouse, in vivo

Compound: CN(C(=O)C[C@@H](N)CCCNC(=N)N)[C@H]1CNC(NC(N)=O)=NC1=O [TAN-1057A]
- MIC [1]: 12.5 µg/mL (≈ 35.2 µM)
- MIC [2]: 3.13 µg/mL (≈ 8.81 µM)
- MIC [3]: 6.25 µg/mL (≈ 17.6 µM)
- MIC [4]: 3.13 µg/mL (≈ 8.81 µM)
- MIC [5]: 50 µg/mL (≈ 141 µM)
- MIC (Aeromonas caviae NCW): 12.5 µg/mL (≈ 35.2 µM)
- MIC (Bacillus cereus FDA 5): 25 µg/mL (≈ 70.3 µM)
- MIC [6]: 12.5 µg/mL (≈ 35.2 µM)
- MIC [7]: 12.5 µg/mL (≈ 35.2 µM)
- MIC (Escherichia coli LD-2): 12.5 µg/mL (≈ 35.2 µM)
- MIC [8]: > 100 µg/mL
- MIC [9]: > 100 µg/mL
- MIC [10]: 3.13 µg/mL (≈ 8.81 µM)
- MIC [11]: > 100 µg/mL
- MIC [12]: > 100 µg/mL
- MIC [13]: 100 µg/mL (≈ 281 µM)
- MIC [14]: 6.25 µg/mL (≈ 17.6 µM)
- MIC [15]: 0.78 µg/mL (≈ 2.19 µM)
- MIC [16]: 12.5 µg/mL (≈ 35.2 µM)
- LD50 ([17]; Oral): > 400 mg/kg
- LD50 ([17]; ip, Intraperitoneal): ~100 mg/kg
